Data: patent publication US4252947A, “Novel quinazolinone” (Roussel Uclaf, priority 1976, dated 1981)
Where a name gives a salt, the structure may show the parent alone.

Assays:
[1] = Oral acute toxicity (LD50, method of Finney); assay type: in vivo; conditions: Swiss female mice; for LD50: mouse, in vivo, dose which caused death in 50% of the animals
Method: The oral acute toxicity was determined for products A and A-B on groups of Swiss female mice by the method of Finney and the results were expressed as LD50 (the dose which caused death in 50% of the animals). The DL50 for product A was 3.7 mg/kg and for product A-B was 6.8 mg/kg. The acute toxicity of product A is only about 1.8 times greater than product A-B.

Eimeria tenella = assay: Coccidiostatic activity in chicks infested with Eimeria tenella; assay type: in vivo; conditions: for weight gain / weight gain (or less) as compared to the animals which received product A-B: chicks infested with Eimeria tenella; for weight gain: 14 to 22 days old; for weight gain / weight gain (or less) as compared to the animals which received product A-B / consumption index: feed with 1 ppm of Product A or 3 ppm of Product A-B; for weight gain (or less) as compared to the animals which received product A-B: relative to product A-B; for consumption index: feed consumed compared to weight gain, higher = more sick
Source text: The coccidiostatic activity of the product of Step E of Example 1 (product A) was studied in comparison with that of a racemic mixture of 7-bromo-6-chloro-3-[3-(3-hydroxy-2-piperidyl)-acetonyl]-4(3H)-quinazolinone (product A-B), 14 day old chicks were weighed and were divided into 3 groups of 13 animals. One group received a feed containing 1 ppm of product A, a second group received a feed containing 3 ppm of product A-B and the 3rd group received just the feed without any additive. The next day, the chicks were infested with Eimeria tenella coccidies and when the chicks were 22 days old, they were weighed as well as the remaining feed. The caecums were removed and the number of caecal lesions were noted. Also noted was (1) the weight of gain (or less) of the chicks as compared to the animals which received product A-B, (2) consumption index which is the amount of feed consumed compared to the weight gain which indice was all the more elevated than the animals which were more sick and (3) the intensity of the lesions on a seal of 1 to 6 were noted.

Compound	LD50 [1] [mg/kg]	weight gain (Eimeria tenella) [g]	weight gain (or less) as compared to the animals which received product A-B (Eimeria tenella)	consumption index (Eimeria tenella)	acute toxicity greater than product A-B ([1]; ratio to racemic mixture)	coccidiostatic activity greater than the racemic product A-B (Eimeria tenella; ratio to racemic mixture) [times]
O=C(CC1NCCCC1O)Cn1cnc2cc(Br)c(Cl)cc2c1=O (racemic) [Product A-B, 7-bromo-6-chloro-3-[3-(3-hydroxy-2-piperidyl)-acetonyl]-4(3H)-quinazolinone, reference compound]	6.8	90.30	0%	2.018	–	–
O=C(C[C@H]1NCCC[C@@H]1O)Cn1cnc2cc(Br)c(Cl)cc2c1=O (single isomer, unassigned) [Product A, dextrorotary 7-bromo-6-chloro-3-[3-(3-hydroxy-2-piperidyl)-acetonyl]-4(3H)-quinazolinone hydrobromide]	3.7	103.07	+14.14%	1.807	about 1.8 times	3
